# Assay results: patent US5783700A, “Quinolic acid derivatives” (priority 1997, dated 1998)
# Entries after “also recorded” stand apart in the source; their conditions may differ.
# Key:
# [1] = Overall in vivo activity (MES, Met, TTE, rotorod); parameters: species or system male Carworth Farms no. 1 mice; conditions: ip
# Procedure: (§1) Biological Testing--Compounds were screened for anticonvulsant activity in male Carworth Farms no. 1 mice. The maximal electroshock (MES), subcutaneous Metrazol (pentylenetetrazole) (Met), and threshold tonic extension (TTE) tests were used to evaluate compounds for anticonvulsive activity. A rotorod protocol was used to determine neurotoxicity. Solutions for injection were prepared in 30% polyethylene glycol 400. Except for the TTE tests, animals were dosed ip at two different time periods: either 30 min. or 4 hr prior to testing. At each time period, three groups of four mice were tested at the following dose levels: 30, 100, and 300 mg/kg. This treatment protocol was followed for MES, Met, and rotorod testing.
# Maximal electroshock (MES) induced seizures were elicited with a 60 cycle alternating current of 50 mA intensity (five to seven times the intensity necessary to evoke minimal electroshock threshold seizures). Current was delivered via corneal electrodes for 0.2 sec. A drop of 0.9% saline was instilled in the eye prior to application of the electrodes. Abolition of the hindlimb tonic extension component of the seizure was defined as protection. […]
# The threshold tonic extension (TTE) test is similar to the MES screen but uses a lower level of electrical current (Piredda et al., 1985). […] An ED50 value was determined from a log dose-response plot of the resulting data. […]
# [2] = molecular target: T1, glycine binding site on the NMDA receptor (Rattus norvegicus, UniProt P35439); assay: Inhibition of [^3 H]-5,7-dichlorokynurenic acid specific binding; type: rat (cerebral cortex membranes); conditions: for [^3 H]-5,7-dichlorokynurenic acid displacement: 10 uM; for remaining activity at 10 µM: 0.25 h, pH 7.4, 10 uM test compound, read-out: Inhibition of [^3 H]-5,7-Dichlorokynurenic Acid Binding, % of Control; for remaining activity at 10 µM / Inhibition of [^3 H]-5,7-Dichlorokynurenic Acid Binding, % of Control: 10 nM radioligand, pH 7.4, mean ± SEM of three determinations; for Inhibition of [^3 H]-5,7-Dichlorokynurenic Acid Binding, % of Control: 10 uM test compound, 15 min, 10 µM
# T1 construct: Membranes were prepared from rat cerebral cortex; from tissue; host or cells: rat cerebral cortex, "buffy coat" membrane fragments
# Procedure: Binding Studies--The procedure of Baron et al. (1991) was used to assay for the inhibition of specific binding at the glycine binding site on the NMDA receptor. The labeled ligand used in this assay was [^3 H]-5,7-dichlorokynurenic acid (15.8 Ci/mmol) from DuPont-New England Nuclear (Boston, Mass.). […] Inhibition of specific binding was determined for selected compounds at a concentration of 10 uM using "buffy coat" membrane fragments (Jones et al., 1989). Membranes were prepared from rat cerebral cortex and assays were conducted in 50 mM HEPES-KOH buffer (Sigma, St. Louis, Mo.) at pH 7.4. Membranes were incubated in a final volume of 1 mL containing 10 nM [^3 H]-5,7-dichlorokynurenic acid. Incubation was continued for 15 min. at 4° C. Nonspecific binding was determined in the presence of 1 mM glycine and subtracted. Binding was terminated by centrifugation at 48,000×g for 10 min. Each of the resultant pellets was washed rapidly with 1 mL ice water and solubilized with 1 mL of a tissue solubilizer (Solvable, DuPont NEN). The solubilized samples were each dissolved in 10 mL 3a70B Complete Counting Cocktail (RPI, Mount Prospect, Ill.). Membrane bound radioactivity was determined using a Beckman LS-5000TD liquid scintillation counter. This screening procedure was conducted in triplicate in three separate tests. Results are presented as percent of control (±SEM, standard error of the mean).
# [3] = Rotorod test for drug induced neurological deficit (neurotoxicity), ip; type: in vivo, male Carworth Farms no. 1 mice; conditions: for Rotorod: effective or [maximum ineffective] intraperitoneal dose: neurotoxicity, 30 min or 4 hr, 30, 100, 300 mg/kg, bracketed = maximum ineffective dose (given as >), unbracketed = effective (neurotoxic) dose (=)
# Procedure: as §1
# Animals were tested for drug induced neurological deficit using a rotorod. Either 30 min. or 4 hr after treatment, the animal was placed on a 1-inch diameter knurled plastic rod rotating at 6 rpm. Neurological deficit was defined as the failure of the animal to remain on the rod for 1 min.
# [4] = tested on: TTE seizure; assay: Threshold tonic extension (TTE) test, ip; type: in vivo, male Carworth Farms no. 1 mice; conditions: for minimal effective dose at 100 mg/kg: ip 100 mg/kg, 1/4 to 4 hr post treatment, 12.5 mA, bracketed = maximum ineffective dose (given as >), unbracketed = effective dose (=), read-out: TTE: effective or [maximum ineffective] intraperitoneal dose
# Procedure: as §1
# The threshold tonic extension (TTE) test is similar to the MES screen but uses a lower level of electrical current (Piredda et al., 1985). The lower current makes the test more sensitive but less discriminate than the MES screen. Twenty mice were pretreated ip with 100 mg/kg of the test compound. At time intervals of 1/4, 1/2, 1, 2, and 4 hr post treatment, 4 mice were challenged with 12.5 mA of electrical current for 0.2 sec. via corneal electrodes. This current produces a TTE seizure in untreated animals. Protection was defined as an absence of seizures. Additional TTE testing was conducted on compound 10 to determine the ED50 value for the observed protective effect. In this case, 6 groups containing either 8 or 16 animals were injected ip and tested two hours following treatment. Each group received a specified dose ranging from 20-500 mg/kg. An ED50 value was determined from a log dose-response plot of the resulting data.
# [5] = tested on: MES induced seizures; assay: Maximal electroshock (MES) anticonvulsant test, ip; type: in vivo, male Carworth Farms no. 1 mice
# Procedure: as §1
# Maximal electroshock (MES) induced seizures were elicited with a 60 cycle alternating current of 50 mA intensity (five to seven times the intensity necessary to evoke minimal electroshock threshold seizures). Current was delivered via corneal electrodes for 0.2 sec. A drop of 0.9% saline was instilled in the eye prior to application of the electrodes. Abolition of the hindlimb tonic extension component of the seizure was defined as protection.
# [6] = tested on: GABA-A neuroreceptor; assay: [^3 H]-muscimol competition binding; type: rat (cerebral cortex membranes); conditions: 5 nM [^3 H]-muscimol, compound 10 uM to 10 nM
# Procedure: Compound 10 was screened for activity at the GABA-A neuroreceptor complex using [^3 H]-muscimol (20.0 Ci/mmol), also from DuPont-New England Nuclear. The filtration method reported by Williams and Risley (1979) was used for this assay. Membranes were initially prepared as described previously and frozen at -20° C. in distilled water for 24 hr. After thawing, membranes were resuspended in 50 mM Tris-acetate buffer (pH 7.0) which contained 0.1% (v/v) saponin (Sigma). The tissue was centrifuged at 48,000×g for 20 min. and the resulting pellet was resuspended in 30 volumes of 50 mM Tris-acetate buffer (pH 7.0) containing 100 mM KCI. The tissue was again centrifuged at 48,000×g for 20 min. After decanting the supernatant, the pellet was covered with fresh KCI containing Tris-acetate buffer and frozen for 24 hr.
# On the day of the assay, the tissue was thawed and resuspended in 30 volumes of 50 mM Trisacetate (pH 7.0) with 100 mM KCI and centrifuged at 48,000×g for 20 min. This washing procedure was repeated twice. The final pellet was resuspended in 32 mL buffer. Membranes were incubated in a final volume of 1 mL with 5 nM [^3 H]-muscimol at 4° C. for 30 min. Samples were run in triplicate employing six different concentrations of compound 10 ranging from 10 uM to 10 nM. The assay was performed in duplicate. Each sample, including controls, contained 1.0% dimethyl sulfoxide (DMSO) to insure solubilization of the test compound. Nonspecific binding was determined in the presence of 200 uM gamma-aminobutyric acid (GABA) and subtracted. Binding was terminated using a Brandel M-24C cell harvester employing rapid filtration through GF/C glass fiber filters presoaked in 0.1% (v/v) polyethylenimine. Filters were washed with 1 mL cold water. Radioactivity bound to the filters was determined by scintillation counting.
# [7] = tested on: NMDA-associated PCP binding site; assay: [^3 H]-TCP binding displacement; type: rat (cerebral cortex membranes)
# Procedure: Compound 10 was also screened for activity at the NMDA-associated PCP binding site, and, additionally, for activity at the GABA-A neuroreceptor. To determine possible effects on PCP binding, N-(1-(2-thienyl)cyclohexyl)-3,4-[^3 H]-piperidine ("[^3 H]-TCP") binding was assayed using the technique of Johnson et al. (1988). TCP is the thienyl derivative of PCP. Binding of [^3 H]-TCP to the NMDA receptor complex can be modulated by glycine agonists and antagonists (Benavides et al., 1988). DuPont-New England Nuclear was the source for [^3 H]-TCP (44.5 Ci/mmol). Membranes were prepared as described above. Assays were conducted in 5 mM Tris-acetate (pH 7.4) buffer containing 10 uM L-glutamic acid and 3 uM glycine. […] Nonspecific binding was determined in the presence of 30 uM PCP and subtracted. Samples were incubated at 24° C. for 1 hr. Binding was terminated using a Brandel M-24C cell harvester employing rapid filtration through GF/C glass filters presoaked in 0.1%(v/v)polyethylenimine. Filters were washed rapidly with two 1 mL aliquots of ice-cold water. Samples were run in triplicate at six different drug concentrations ranging from 1 uM to 5 nM. The experiment was repeated with buffer containing 0.1 mM L-glu and no added glycine. Two separate assays were conducted for each experiment.
Compound,remaining activity at 10 µM [2] [%],Rotorod: effective or [maximum ineffective] intraperitoneal dose [3] [mg/kg],minimal effective dose at 100 mg/kg ([4]; Mus musculus) [mg/kg],also measured
CCOC(=O)c1cc(NC(=O)N(CC)CC)c2c(Cl)cc(Cl)cc2n1 [Compound 2],,> 300,100,
CCN(CC)C(=O)Nc1cc(C(=O)O)nc2cc(Cl)cc(Cl)c12 [Compound 3],,300,> 100,neurotoxicity in rotorod test [3]: neurotoxic
CN(C)C(=O)Nc1cc(C(=O)O)nc2cc(Cl)cc(Cl)c12 [Compound 5],,> 300,,MES activity [5]: demonstrated activity
CCOC(=O)c1cc(NC(=O)N(c2ccccc2)c2cccc(OC)c2)c2c(Cl)cc(Cl)cc2n1 [Compound 11],,> 300,100,"TTE anticonvulsant activity ([4]; ip, 100 mg/kg): active"
COc1cccc(N(C(=O)Nc2cc(C(=O)O)nc3cc(Cl)cc(Cl)c23)c2ccccc2)c1 [Compound 12],,> 300,,MES activity [5]: demonstrated activity

# More lines, main results first:
remaining activity at 10 µM [2] [%],Compound,Rotorod: effective or [maximum ineffective] intraperitoneal dose [3] [mg/kg],minimal effective dose at 100 mg/kg ([4]; Mus musculus) [mg/kg],also measured
58 ± 8,CCN(CC)C(=O)Nc1cc(C(=O)OC)nc2cc(Cl)cc(Cl)c12 [Compound 1],> 300,,"in vivo / CNS anticonvulsant activity [1]: no in vivo activity; also recorded: no CNS activity; also recorded: did not have any in vivo effects; [^3 H]-5,7-dichlorokynurenic acid displacement [2]: active"
57 ± 1,CCOC(=O)c1cc(NC(=O)N(C)C)c2c(Cl)cc(Cl)cc2n1 [Compound 4],> 300,> 100,"in vivo / CNS anticonvulsant activity [1]: no in vivo activity; also recorded: no CNS activity; also recorded: did not have any in vivo effects; [^3 H]-5,7-dichlorokynurenic acid displacement [2]: active"
76 ± 6,CCCCN(CCCC)C(=O)Nc1cc(C(=O)OCC)nc2cc(Cl)cc(Cl)c12 [Compound 6],> 300,100,
20 ± 11,CCCCN(CCCC)C(=O)Nc1cc(C(=O)O)nc2cc(Cl)cc(Cl)c12 [Compound 7],> 300,100,"Inhibition of [^3 H]-5,7-Dichlorokynurenic Acid Binding, % of Control [2]: 20-30 % of Control"
77 ± 7,CCOC(=O)c1cc(NC(=O)N(c2ccccc2)c2ccccc2)c2c(Cl)cc(Cl)cc2n1 [Compound 8],> 300,100,
25 ± 5,O=C(O)c1cc(NC(=O)N(c2ccccc2)c2ccccc2)c2c(Cl)cc(Cl)cc2n1 [Compound 9],> 300,100,"Inhibition of [^3 H]-5,7-Dichlorokynurenic Acid Binding, % of Control [2]: 20-30 % of Control"
42 ± 7,"COC(=O)c1cc(NC(=O)N(c2ccccc2)c2ccccc2)c2c(Cl)cc(Cl)cc2n1 [Compound 10, 2-methyl carboxylate-5,7-dichloro-4-[[(diphenylamino)-carbonyl]amino]-quinoline]",> 300,100,"ED50 ([4]; Mus musculus, 2 h, ip, two hours following treatment, doses 20-500 mg/kg): 134 mg/kg; S.E. of slope of TTE dose-response ([4]; log dose-response plot, ip): 0.44; slope of TTE dose-response ([4]; log dose-response plot, ip): 1.9; Inhibition of [^3 H]-5,7-Dichlorokynurenic Acid Binding, % of Control [2]: 42 % of Control; effect on [^3 H]-muscimol binding (GABA-A) [6]: No significant difference from control; also recorded: no effect; also recorded: No significant effects were observed; effect on [^3 H]-muscimol binding (GABA-A) ([6]; listed as 2-methyl carboxylate-5,7-dichloro4-[[(diphenylamino)-carbonyl]amino]-quinoline): tested negative; effect on [^3 H]-muscimol binding (GABA-A) ([6]; listed as 2-methyl carboxylate-5,7-dichloro-4-[[(diphenylamino)-carbonyl]amino]-quinoline): No significant effects were observed; effect on [^3 H]-TCP binding ([7]; 10 uM L-glutamic acid and 3 uM glycine, compound 1 uM to 5 nM): No significant effect; effect on [^3 H]-TCP binding ([7]; 10 uM L-glutamic acid and 3 uM glycine, compound 1 uM to 5 nM, listed as 2-methyl carboxylate-5,7-dichloro-4-[[(diphenylamino)-carbonyl]amino]-quinoline): No significant effect; effect on [^3 H]-TCP binding ([7]; L-glutamate, no added glycine, compound 5 uM to 10 nM): no significant effect; PCP activity at the NMDA receptor ([7]; summary statement): tested negative"
